Experimental data taken from US11124571B2, “Methods of sensitizing cancer to immunotherapy” (CASE WESTERN RESERVE UNIVERSITY, priority 2016, dated 2021).

Columns and labels:
[1] = test system: surface PD-L1 on MM1 (Medulloblastoma) cells; test: Surface PD-L1 expression on MM1 cells upon IFNγ exposure in the presence of compound; type: cell-based, mouse
Description: (§1) a) Seed wild type MM1 (Medulloblastoma) and RMS 76.9 (Rhabdomyosarcoma) tumor cells (100,000 per well in 6-well plate and 3 ml media). Use PD-L1-deficient tumor cells (crPDL1; genetically manipulated using CRISPR-Cas9 technology) as controls:
(§2) b) Serum starve overnight
(§3) c) Add various concentration of CYC065 in DMSO, along with 100 ng/ml IFNγ
(§4) d) 24 hours later, harvest cells, stain for PD-L1 using anti-mPDL1-PE antibody and analyze by flow cytometry

[2] = test system: surface PD-L1 on RMS 76.9 (Rhabdomyosarcoma) cells; test: Surface PD-L1 expression on RMS 76.9 cells upon IFNγ exposure in the presence of compound; type: cell-based, mouse; details: 24-hour exposure, IFNγ 100 ng/ml
Description: as §1, §2, §3, §4

[3] = test system: MM1 tumors; test: In vivo anti-tumor efficacy against subcutaneous MM1 tumors
Description: e) 10 8-12 week-old […] male mice per cohort were used for all in vivo tumor growth kinetics experiment.
f) 50,000 tumor cells were inoculated subcutaneously in the flank on Day 0
h) Mice were monitored at least twice a week for tumor growth and tumor size measurements.

[4] = test system: PD-L1, MHC-II and MHC-I surface expression on harvested MM1 tumor cells; test: IFNγ response of tumor cells harvested on Day 21 from treated mice and cultured in vitro; type: cell-based, mouse; details: tumors from in vivo treated mice; cultured 7-10 days without compound; IFNγ 100 ng/ml 24 hours
Source text: i) Tumor mass was resected on Day 21 and grown in culture for 1 week, followed by 24-hour exposure to IFNγ to assess PD-L1 response in vitro.

[5] = test system: PD-L1 transcript in MM1 WT cells; test: PD-L1 mRNA expression (qPCR) in MM1 WT cells treated with Roscovitine and stimulated with IFNγ; type: cell-based, mouse; details: Roscovitine 10 μM or 20 μM, 4 days, IFNγ 100 ng/ml 24 hours
Description: Total cellular RNA was isolated from 5×10^6-107 cells using TRIZOL and RNAspin Mini kit (GE Healthcare, UK), treated with DNAseI to eliminate genomic DNA, and quantitated using the NanoDrop2000 spectrophotometer. Reverse transcription (RT) of 1 μg of total RNA was performed with oligo(dT)16 using on using SuperScript First Strand Synthesis System for RT-PCR kit (Life Technologies, Carlsbad, Calif.). The resulting cDNA was used as a template for the amplification of target gene transcripts by real time PCR, using SYBR Green PCR Master Mix (Life Technologies, Carlsbad, Calif.) on the ABI 7300 Real-Time PCR machine (Life Technologies, Carlsbad, Calif.). Target gene expression was calculated using the standard curve method upon normalization to cytochrome c housekeeping gene. The primer sequences were as follows: Cdk5 forward: […]; Cdk5 reverse: […]; cytochrome c forward: […]; cytochrome c reverse: […]; p35 forward: […]; p35 reverse: […]; PD-L1 forward: […] and PD-L1 reverse: […].
Murine MB cell lines MM1 were grown in RPMI supplemented with 10% FBS. A stock solution of Roscovitine (10 mM) or vehicle control-DMSO was diluted in fresh tumor medium and added to samples to achieve a final concentration of 10 μM or 20 μM. After 4 days of treatment, cells were subjected to 100 ng/ml rmIFN-γ (R&D Systems) for 24 hours and then harvested for qPCR analysis.

[6] = test system: surface PD-L1 on DAOY and UW228 human MB lines; test: Surface PD-L1 (flow cytometry) on human MB lines treated with Roscovitine and stimulated with IFNγ; type: cell-based; details: IFNγ 24 hours
[7] = test system: surface PD-L1 on MM1 (Medulloblastoma) cells; details: same cell lines (MM1, RMS); reported in Dorand et al. Science 2016; cited from earlier work
[8] = MM1, 24-hour exposure, IFNγ 100 ng/ml

| Structure (SMILES) | concentration at which PD-L1 response upon IFNγ stimulation is completely abrogated [1, 8] | concentration at which cells began to show PD-L1 down-modulation [1, 8] | increase in potency for PD-L1 down modulation as compared to Roscovitin ([1]; MM1 and RMS cell lines) | concentration at which PD-L1 response upon IFNγ stimulation is completely abrogated [2] | mortality ([3]; 50 mg/kg daily×5 days/week by gavage in water, prolonged exposure, MM1-bearing C57BL/6 mice) | tumor size ([3]; 50 mg/kg daily×5 days/week by gavage, start Day 0 or Day 7) | MHC-II/MHC-I response upon in vitro exposure to IFNγ [4] | PD-L1 response upon in vitro exposure to IFNγ [4] | PD-L1 transcript [5] | surface PD-L1 upregulation upon IFNγ exposure [6] | concentration at which effects on PD-L1 down modulation are shown [7] |
| --- | --- | --- | --- | --- | --- | --- | --- | --- | --- | --- | --- |
| CC[C@H](Nc1nc(NCc2cnc(C)cc2C)c2ncn(C(C)C)c2n1)[C@@H](C)O [CYC065] | 1 µM | 0.5 µM | > 10 fold | 1 µM | 70% | significantly smaller sized tumor | enhanced MHC-II/MHC-I enhancement | reduced PD-L1 response | – | – | – |
| CC[C@H](CO)Nc1nc(NCc2ccccc2)c2ncn(C(C)C)c2n1 [Roscovitine, 6-benzylamino-2-[(R)-1-ethyl-2-hydroxyethylamino]-9-isopropylpurine] | – | – | – | – | – | – | – | – | dose-dependent decrease | diminished surface PD-L1 upregulation | ≥ 10 µM |
